Assay results as given in US20210198313A1, “METHOD OF PRODUCING IMIDAZOLE DIPEPTIDES” (Tokai Bussan Co., Ltd., priority 2019, published 2021).

Columns and labels:
[1] = Dissociation constants disclosed in published references; type: physicochemical; conditions: converted from literature pKb 9.20
Source text: For example, Bate-Smith (Bate-Smith, E. C., J. Physiol. (London) 92, 336 (1938)) discloses the results that pK2 of carnosine was 6.83, and Doutsch et al. (Dutch, A., Eggleton, P., Biochem. J. 32, 209 (1938)), discloses the results that pK2 of anserin was 7.04. In these references, pK2 means the dissociation constant of imidazole group and corresponds to pKR in Table 1. […] If converted to pKR, it is 4.8. Thus, each pKR for anserine, carnosine and creatinine in Table 1 was well consistent with the data described in the references.

[2] = cited from earlier work
[3] = Titration of 0.1 M aqueous solutions with 0.1 N sulfuric acid and 0.1 N sodium hydroxide to determine dissociation constants and charge state; type: physicochemical
Source text: In view of the difference between the adsorption behaviors of imidazole dipeptides, including anserine and carnosine, and creatinine on a strongly acidic cation exchange resin, each electrical dissociation behavior of the compounds with respect to pH values was experimentally measured by the titration method as mentioned below. The terms “pK” and “pI” are the dissociation constant and the isoelectric point, respectively.
The 0.1 M aqueous solutions of L-anserine, L-carnosine and creatinine were prepared and the titration curves were generated with 0.1 N sulfuric acid and 0.1 N sodium hydroxide according to known methods. From each titration curve, pK1, pKR and pK2 were determined.
In Table 1, with respect to anserine and carnosine, pK1 represents the dissociation of carboxyl group, pKR represents the dissociation of imidazole group, and pK2 represents the dissociation of amino group. With respect to creatinine, pKR represents the dissociation of imidazole group.
Based on the measured results, the state of the charge of anserine, carnosine and creatinine at each pH value is shown in FIG. 1.

[4] = 0.1 M aqueous solution, titration curve

Row | pKR converted from pKb [1] | pI (isoelectric point) [3, 4] | pK1 (dissociation of carboxyl group) [3, 4] | pK2 (dissociation of amino group) [3, 4] | pKR (dissociation of imidazole group) [3, 4] | positive charge ([3]; pH 5, FIG. 1) [valent] | positive charge ([3]; pH 7, FIG. 1) [valent] | positive charge ([3]; pH 8, FIG. 1) [valent] | SMILES | pKb ([2]; literature (Eadie and Hunter 1926)) | pK2 (dissociation constant of imidazole group, corresponds to pKR in Table 1) ([2]; literature (Bate-Smith 1938; Deutsch and Eggleton 1938))
1 | 4.8 | – | – | – | – | – | – | – | CN1CC(=O)NC1=N [Creatinine, creatinine] | 9.20 | –
2 | – | 8.3 | 2.8 | 9.8 | 6.8 | 1 | 0.5 | 0.1 | NCCC(=O)N[C@@H](Cc1c[nH]cn1)C(=O)O [Carnosine, β-alanyl histidine] | – | 6.83
